Patent US20220160608A1, “PEPTIDE FOR REDUCING HAIR LOSS AND PROMOTING HAIR GROWTH, AND COSMETIC COMPOSITION AND PHARMACEUTICAL COMPOSITION COMPRISING SAME” (INCOSPHARM CORPORATION, priority 2019, published 2022)
Each block holds one molecule with its values, some of them ahead of it.

Assays:
[1] = tested on: growth hormones VEGF, IGF-I, FGF10; test: Western blot for expression of hair-related growth hormone proteins in HFDPCs; format: cell-based, human; details: 10 or 40 μM respectively, 48 hours
Method: Specifically, human follicular dermal papilla cells (HFDPCs) were uniformly plated with western blot experimental method at the number of 1×10^5 cells in a 6-well plate and cultured in an incubator in DMEM (Dulbecco's Modified Eagle Media, Gibco BRL) for 24 hours at 37° C. under 5% CO2 conditions. […] Thereafter, 1 ml of each dilution solution was added in each well containing 1 ml of medium, and incubated for 48 hours. After the culture was completed, the medium was removed and the cells were disrupted with SDS sample buffer, followed by separating each protein on SDS-PAGE gel electrophoresis, transferring to a polyvinylidene fluoride (PVDF) membrane, and then removing non-specific binding using a blocking buffer.

FGF1 and FGF7 = test: RT-PCR for FGF1 and FGF7 gene expression in human dermal papilla cells; format: cell-based; details: 10 or 40 μM
Description: (§1) After completion of the culture, the cells were disrupted with Trizol (Ambion), total mRNA was collected with chloroform/isopropanol, and cDNA was synthesized with reverse transcriptase.

MMP-2 and ALP = test: RT-PCR for MMP-2 and ALP gene expression in human dermal papilla cells; format: cell-based; details: compared to the control group
Method: as §1
RT-PCR (Thermal Cycler, Bio-rad) was performed using primers specific for MMP-2 and ALP, and the amplified product was analyzed by agarose gel electrophoresis, and the results are shown in (a) of FIG. 6.

[2] = tested on: Wnt/β-catenin signaling pathway; details: HFDPCs; for expression of p-GSK3β protein / expression of β-catenin protein: Western blot, compared to control group not treated with the peptide; for expression of active β-catenin protein, concentration screening: all concentrations from 0.1 μM to 100 μM (SEQ ID NO: 5) or 50 μM (SEQ ID NO: 10), effect not concentration-dependent
Method: Human follicular dermal papilla cells (HFDPCs) were uniformly plated at the number of 1×10^5 or 5×10^4 cells in a 6-well plate and cultured in an incubator in DMEM (Dulbecco's Modified Eagle Media, Gibco BRL) for 24 hours at 37° C. under 5% CO2 conditions. […] After adding 1 ml of each dilution to each well containing 1 ml of the medium the cells were incubated for a certain period of time. After the culture was completed, the medium was removed, the cells were disrupted with SDS sample buffer. Each protein was separated by SDS-PAGE gel electrophoresis and transferred to a polyvinylidene fluoride (PVDF) membrane, and then non-specific binding was eliminated using a blocking buffer.

[3] = tested on: p21 (cyclin-dependent kinase inhibitor 1a, Cdkn1a); details: HFDPCs, Western blot, compared to the control group
Method: Specifically, human follicular dermal papilla cells (HFDPCs) were uniformly plated with western blot experimental method at the number of 1×10^5 cells in a 6-well plate and cultured in an incubator in DMEM (Dulbecco's Modified Eagle Media, Gibco BRL) for 24 hours at 37° C. under 5% CO2 conditions. The peptides of SEQ ID NO: 5 and SEQ ID NO: 10 of the present invention were dissolved in water at a concentration of 10 mM to obtain a concentrate, which was diluted with a medium to an optimal concentration of 10 or 40 μM, respectively. Thereafter, 1 ml of each dilution solution was added in each well containing 1 ml of medium, and incubated for 48 hours. After the culture was completed, the medium was removed and the cells were disrupted with SDS sample buffer, followed by separating each protein on SDS-PAGE gel electrophoresis, transferring to a polyvinylidene fluoride (PVDF) membrane, and then removing non-specific binding using a blocking buffer.
In order to analyze whether p21 may be inhibited by treatment with peptides of SEQ ID NO: 5 and SEQ ID NO: 10, Western blot for an expression of p21 protein was performed.
After transferring to a PVDF membrane (polyvinylidene fluoride), non-specific binding was eliminated using a blocking buffer.

human hair follicles = details: SEQ ID NO: 5 100 μM, SEQ ID NO: 10 16.6 μM; 7 or 10 days culture; compared to IGF-1 (10 ng/ml) or Minoxidil (10 μM) positive control
Method: After separating the surrounding tissues, the hair follicles isolated from the human scalp tissues were stored in Earle's balanced salts solution (EBSS; SigmaAldrich). The hair follicles in anagen phase were carefully separated under a microscope and then used in the experiment. The isolated hair follicles were cultured in Williams medium E (Gibco, Grand Island, N.Y., USA) at 37° C., 5% CO2 and 95% air with an addition of 2 mM L-glutamine (Gibco, NY, USA), 10 μg/ml insulin (SigmaAldrich), 10 ng/ml hydrocortisone (SigmaAldrich), 100 Unit/ml penicillin and 100 μg/ml streptomycin. […] At this time, as a positive control group, Minoxidil (10 μM) or IGF-1 (10 ng/ml) was treated.

[4] = tested on: Wnt/β-catenin signaling pathway inhibited by DKK-1; test: Inhibition of DKK-1 activity: reactivation of Wnt/β-catenin signaling inhibited by recombinant DKK-1 (Western blot, HFDPCs); details: for recovery (increase) of expression level of non-phospho (active) β-catenin: peptide treated simultaneously with recombinant DKK-1
Method: Specifically, human follicular dermal papilla cells (HFDPCs) were uniformly plated at the number of 5×10^4 cells in a 12-well plate and cultured in an incubator in DMEM (Dulbecco's Modified Eagle Media, Gibco BRL) for 24 hours at 37° C. under 5% CO2 conditions. After culturing, each well was treated with the recombinant protein DKK-1 to inhibit the Wnt/β-catenin signaling pathway, and further treated with the peptides of SEQ ID NO: 5 and SEQ ID NO: 10 of the present invention at appropriate concentrations, followed by culturing for a certain period of time.
After the culture was completed, the medium was removed, the cells were disrupted with SDS sample buffer. Each protein was separated by SDS-PAGE gel electrophoresis and transferred to a PVDF membrane (polyvinylidene fluoride), and then non-specific binding was eliminated using a blocking buffer.

LRP5 = LRP5 (human, UniProt O75197 32-1615); test: cell-based or functional assay
LRP6 = LRP6 (human, UniProt O75581 20-1613); test: cell-based or functional assay
Sequence of LRP6 (O75581 20-1613): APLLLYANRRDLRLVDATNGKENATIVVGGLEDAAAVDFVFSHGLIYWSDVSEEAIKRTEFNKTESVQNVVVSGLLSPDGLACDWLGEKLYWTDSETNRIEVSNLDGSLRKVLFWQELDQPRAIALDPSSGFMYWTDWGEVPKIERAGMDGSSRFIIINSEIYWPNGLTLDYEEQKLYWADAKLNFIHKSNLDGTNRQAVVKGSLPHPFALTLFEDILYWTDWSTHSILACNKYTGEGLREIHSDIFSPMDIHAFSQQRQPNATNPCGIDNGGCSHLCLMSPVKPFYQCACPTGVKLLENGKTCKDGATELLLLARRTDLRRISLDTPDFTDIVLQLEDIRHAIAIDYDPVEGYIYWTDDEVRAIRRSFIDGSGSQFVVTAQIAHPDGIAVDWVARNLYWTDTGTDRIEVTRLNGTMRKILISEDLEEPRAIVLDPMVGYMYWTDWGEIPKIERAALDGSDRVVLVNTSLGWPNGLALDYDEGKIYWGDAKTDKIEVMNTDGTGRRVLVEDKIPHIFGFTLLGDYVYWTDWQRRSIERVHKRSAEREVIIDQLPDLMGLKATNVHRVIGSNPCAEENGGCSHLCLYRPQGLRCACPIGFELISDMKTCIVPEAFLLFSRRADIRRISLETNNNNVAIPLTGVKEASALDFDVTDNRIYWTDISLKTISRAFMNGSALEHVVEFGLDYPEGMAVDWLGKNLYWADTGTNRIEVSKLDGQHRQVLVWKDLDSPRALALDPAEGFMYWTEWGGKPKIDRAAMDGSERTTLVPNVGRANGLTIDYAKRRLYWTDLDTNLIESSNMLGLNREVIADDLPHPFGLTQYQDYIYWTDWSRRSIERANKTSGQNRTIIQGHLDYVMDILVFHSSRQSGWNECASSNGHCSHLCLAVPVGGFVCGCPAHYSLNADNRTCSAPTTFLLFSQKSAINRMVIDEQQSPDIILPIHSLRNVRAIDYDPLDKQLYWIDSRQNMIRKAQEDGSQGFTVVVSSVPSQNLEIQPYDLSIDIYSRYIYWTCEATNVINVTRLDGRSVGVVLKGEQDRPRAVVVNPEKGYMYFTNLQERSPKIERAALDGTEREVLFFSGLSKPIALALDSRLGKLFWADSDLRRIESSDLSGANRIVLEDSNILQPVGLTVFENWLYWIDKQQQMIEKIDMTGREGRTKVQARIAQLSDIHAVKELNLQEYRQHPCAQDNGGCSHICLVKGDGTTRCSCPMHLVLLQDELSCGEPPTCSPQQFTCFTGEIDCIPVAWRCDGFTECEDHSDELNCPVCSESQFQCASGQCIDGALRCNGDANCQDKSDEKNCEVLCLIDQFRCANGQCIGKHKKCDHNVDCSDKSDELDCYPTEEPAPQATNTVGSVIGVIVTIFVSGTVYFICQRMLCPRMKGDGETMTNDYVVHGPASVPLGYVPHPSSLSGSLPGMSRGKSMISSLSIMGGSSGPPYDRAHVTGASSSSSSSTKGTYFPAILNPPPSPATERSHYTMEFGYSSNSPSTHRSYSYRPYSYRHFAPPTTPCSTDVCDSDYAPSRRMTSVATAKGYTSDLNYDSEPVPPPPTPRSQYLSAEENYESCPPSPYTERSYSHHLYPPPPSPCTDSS

Sequence of LRP5 (O75197 32-1615): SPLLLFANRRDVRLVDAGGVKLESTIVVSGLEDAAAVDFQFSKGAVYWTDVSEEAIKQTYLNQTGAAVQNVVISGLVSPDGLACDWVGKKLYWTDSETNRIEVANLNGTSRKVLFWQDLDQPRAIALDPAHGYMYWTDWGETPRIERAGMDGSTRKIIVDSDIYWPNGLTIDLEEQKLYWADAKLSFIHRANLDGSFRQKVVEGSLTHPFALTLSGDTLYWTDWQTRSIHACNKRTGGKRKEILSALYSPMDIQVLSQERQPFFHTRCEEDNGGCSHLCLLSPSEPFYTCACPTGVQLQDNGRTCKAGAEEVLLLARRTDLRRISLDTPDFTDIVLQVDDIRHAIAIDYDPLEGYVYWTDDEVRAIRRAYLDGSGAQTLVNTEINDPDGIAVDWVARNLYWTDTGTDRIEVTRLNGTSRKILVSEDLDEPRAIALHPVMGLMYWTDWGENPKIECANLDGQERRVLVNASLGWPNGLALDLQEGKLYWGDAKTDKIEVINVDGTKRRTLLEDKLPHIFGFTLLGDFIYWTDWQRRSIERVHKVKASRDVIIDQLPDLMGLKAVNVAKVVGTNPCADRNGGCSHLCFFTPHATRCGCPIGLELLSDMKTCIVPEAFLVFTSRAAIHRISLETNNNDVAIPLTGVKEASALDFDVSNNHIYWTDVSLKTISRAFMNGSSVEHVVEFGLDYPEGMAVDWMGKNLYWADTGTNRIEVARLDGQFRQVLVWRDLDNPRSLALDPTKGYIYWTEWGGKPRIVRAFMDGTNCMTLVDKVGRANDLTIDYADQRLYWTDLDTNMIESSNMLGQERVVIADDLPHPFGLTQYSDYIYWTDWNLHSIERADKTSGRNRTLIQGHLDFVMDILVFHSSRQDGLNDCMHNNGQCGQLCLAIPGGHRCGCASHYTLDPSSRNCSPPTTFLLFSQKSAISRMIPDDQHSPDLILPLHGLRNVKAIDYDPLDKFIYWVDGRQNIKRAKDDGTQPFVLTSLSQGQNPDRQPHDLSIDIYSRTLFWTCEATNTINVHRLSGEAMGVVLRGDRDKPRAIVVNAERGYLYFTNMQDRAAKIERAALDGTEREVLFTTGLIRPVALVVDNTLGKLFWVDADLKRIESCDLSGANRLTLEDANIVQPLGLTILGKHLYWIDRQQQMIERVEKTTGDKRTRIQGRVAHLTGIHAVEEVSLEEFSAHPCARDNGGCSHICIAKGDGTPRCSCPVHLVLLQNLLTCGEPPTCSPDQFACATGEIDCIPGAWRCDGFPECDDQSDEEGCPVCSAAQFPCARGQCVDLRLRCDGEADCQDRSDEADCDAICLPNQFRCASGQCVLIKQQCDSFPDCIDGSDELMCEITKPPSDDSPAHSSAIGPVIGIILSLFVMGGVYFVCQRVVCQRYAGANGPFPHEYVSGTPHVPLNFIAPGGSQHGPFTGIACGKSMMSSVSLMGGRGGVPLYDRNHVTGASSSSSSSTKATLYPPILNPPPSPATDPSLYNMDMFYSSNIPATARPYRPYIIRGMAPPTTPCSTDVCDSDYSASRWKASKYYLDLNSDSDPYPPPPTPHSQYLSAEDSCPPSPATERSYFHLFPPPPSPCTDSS

Molecule: arginine-isoleucine-proline [SEQ ID NO: 10]
- expression of FGF10 protein [1]: increased
- expression of IGF-I protein [1]: increased
- expression of VEGF protein [1]: increased
- expression of FGF1 gene (FGF1 and FGF7): increased
- expression of FGF7 gene (FGF1 and FGF7): increased
- gene expression of ALP (MMP-2 and ALP): increased
- gene expression of MMP-2 (MMP-2 and ALP): increased
- expression of p-GSK3β protein [2]: significantly increased
- expression of β-catenin protein [2]: significantly increased
- expression of active β-catenin protein, concentration screening [2]: increased
- p21 protein expression [3]: significantly reduced
- hair shaft growth (length of hair shaft) (human hair follicles): superior hair shaft growth
- recovery (increase) of expression level of non-phospho (active) β-catenin [4]: ~31%

Molecule: serine-cysteine-arginine-isoleucine-glutamine [SEQ ID NO: 5]
- expression of FGF10 protein [1]: increased
- expression of IGF-I protein [1]: increased
- expression of VEGF protein [1]: increased
- expression of FGF1 gene (FGF1 and FGF7): increased
- expression of FGF7 gene (FGF1 and FGF7): increased
- gene expression of ALP (MMP-2 and ALP): increased
- gene expression of MMP-2 (MMP-2 and ALP): increased
- expression of p-GSK3β protein [2]: significantly increased
- expression of β-catenin protein [2]: significantly increased
- expression of active β-catenin protein, concentration screening [2]: increased
- p21 protein expression [3]: significantly reduced
- hair shaft growth (length of hair shaft) (human hair follicles): superior hair shaft growth
- recovery (increase) of expression level of non-phospho (active) β-catenin [4]: about 10%

B1: DKK-1: recombinant protein, potent antagonist of the Wnt/β-catenin signaling pathway, ligand of LRP5/6 (protein)
chain: TLNSVLNSNAIKNLPPPLGGAAGHPGSAVSAAPGILYPGGNKYQTIDNYQPYPCAEDEECGTDEYCASPTRGGDAGVQICLACRKRRKRCMRHAMCCPGNYCKNGICVSSDQNHFRGEIEETITESFGNDHSTLDGYSRRTTLSSKMYHTKGQEGSVCLRSSDCASGLCCARHFWSKICKPVLKEGQVCTKHRRKGSHGLEIFQRCYCGEGLSCRIQKDHHQASNSSRLHTCQRH
- decrease of expression level of non-phospho(active) β-catenin ([4]; control group treated with recombinant protein DKK-1): about 24%

Further lines, results first:

- expression level of non-phospho(active) β-catenin in HFDPCs (western blot), decrease against untreated control (LRP5): 24%
- expression level of non-phospho(active) β-catenin in HFDPCs (western blot), decrease against untreated control (LRP6): 24%
Molecule: recombinant protein DKK-1 (Dickkopf-1) (from UniProt O94907 32-266) (ligand)

- expression level of non-phospho (active) β-catenin in HFDPCs treated with recombinant DKK-1 (western blot), recovery (LRP5): ~31%
- expression level of non-phospho (active) β-catenin in HFDPCs treated with recombinant DKK-1 (western blot), recovery (LRP6): ~31%
Molecule: RIP [peptide of SEQ ID NO: 10 (arginine-isoleucine-proline, RIP)]

- expression level of non-phospho (active) β-catenin in HFDPCs treated with recombinant DKK-1 (western blot), recovery (LRP5): ~10%
- expression level of non-phospho (active) β-catenin in HFDPCs treated with recombinant DKK-1 (western blot), recovery (LRP6): ~10%
Molecule: SCRIQ [peptide of SEQ ID NO: 5 (serine-cysteine-arginine-isoleucine-glutamine, SCRIQ)]
